Source: US20080039410A1, “Inositol 1,4,5-Trisphosphate Receptor Mutants and Uses Thereof” (priority 2004, published 2008)
Entries after “also recorded” stand apart in the source; their conditions may differ.

Tests used:
[1] = system: S2− InsP3R-1; test: Ca2+ oscillations after α-IgM antibody stimulation of Dt-40 3ko cells expressing S2− constructs; assay type: cell-based, rat; settings: for Ca^2+ signal pattern: 250 ng/ml α-IgM antibody (threshold)
Text: Cells transfected with WT and mutant S2− isoforms were stimulated with varying concentrations of an α-IgM antibody (Southern Biotechnology Associates, Inc., Birmingham, Ala.). Infrequent Ca^2+ oscillations were produced presumably through B cell receptor cross-linking, activation of phospholipase C-γ, and subsequent production of InsP3.
In many nonelectrically excitable cell types, the physiological mode of Ca^2+ signaling is through the generation of Ca^2+ oscillations (1, 108). Moreover, it is a generally held view that the spatial and temporal properties of Ca^2+ oscillations make an important contribution to defining the fidelity and specificity of Ca^2+ signaling. In many current models addressing the mechanism underlying Ca^2+ oscillations, a key feature is the regulation of Ca^2+ release through InsP3R. Experiments were then designed to assess the consequences of InsP3R-1 phosphorylation (expressed in isolation) on the initiation and generation of Ca^2+ oscillations. An α-IgM antibody was chosen to stimulate and to initiate Ca^2+ oscillations through activation of the endogenous B cell receptor, phospholipase C-γ activation, and the formation of InsP3. Dt-40 3ko cells expressing either S2−WT or S2−EE to mimic PKA phosphorylation of the InsP3R-1 were stimulated with various concentrations of α-IgM antibody as illustrated by the selection of representative traces in FIG. 24. […] This latter observation presumably reflects the fact that the frequency of oscillations is primarily defined by mechanisms such as Ca^2+ feedback (109) rather than the absolute sensitivity of the InsP3R-1 to InsP3 within a defined range. […] Given the almost ubiquitous expression of various forms of InsP3R-1, this is likely a generally important phenomenon. […] These include modulation of InSP3 binding, an idea supported by measurements of InsP3R binding in hepatocytes (112) (presumably S2− InsP3R-1 and InsP3R-2). In these studies the apparent affinity of InsP3 binding was enhanced ˜2-fold at resting [Ca^2+], and the [Ca^2+] necessary for half-maximal stimulation of InsP3 binding was reduced. In contrast, a study of recombinant S1−S2+InsP3R-1 expressed in SF9 cells and reconstituted into lipid bilayers has reported a similar increase in InsP3R sensitivity to InsP3 but that the bell-shaped Ca^2+ sensitivity of channel opening is not altered following phosphorylation of the InsP3R-1 (23). These findings indicate that modulation of the Ca^2+ sensitivity of channel activity is unlikely to account for the increased apparent sensitivity of the receptor, at least in this form of the InsP3R-1. There are a number of alternative mechanisms for altering InsP3R-1 sensitivity are conceivable. For example, phosphorylation of the receptor could alter the gating of the channel directly. In addition, phosphorylation might secondarily modulate the receptor by regulation of the association of regulatory factors such as proteins or adenine nucleotides (113-115).

[2] = system: S2+ InsP3R-1; test: CCh concentration-response of Ca2+ release in Dt-40 3ko cells expressing m3R and S2+ InsP3R-1 constructs; assay type: cell-based, rat; settings: for maximum peak Δ response to CCh: Fura-2 340/380 ratio; for fold change from WT (CCh EC50): S2 + InsP3R-1 constructs, Table 2; for EC50: fit of normalized initial peak, read-out: EC50 for CCh-induced Ca^2+ release
Text: The rat S2^+ InsP3R-1 in the expression plasmid pIRES-GFP was digested with the restriction endonuclease SalI. The overhang created by digestion was blunted by using T4 polymerase. An EcoRI linker was then ligated onto the blunted ends of the construct. The entire receptor DNA was excised from the plasmid using EcoRI and ligated into the plasmid MXT-1. The region containing the S2^− splice variant and potential PKA phosphorylation sites was excised from its backbone in pCDNA 3.1+ by RsrII and KasI and ligated into the InsP3R construct in MXT-1. The potential PKA phosphorylation sites Ser-1589 and Ser-1755 were mutated, individually in both splice variants and together in the S2^− splice variant, to alanines or glutamates by using sequential PCR mutagenesis. The outside primers used for the mutagenesis reaction flanked the restriction sites RsrII and KasI. Following mutation, the resulting fragments were cut with RsrII and KasI and inserted into the InsP3R-1 backbone at the corresponding sites. The mutations were confirmed by Big Dye fluorescent sequencing. Mutated receptor DNAs were excised from MXT-1 by using EcoRI and ligated into the mammalian expression vector pGW (provided by Dr. David Yue, Johns Hopkins University). Orientation was confirmed by using restriction enzyme digestion. Mutants were named based on the splice variant, either S2+ or S2− followed by the amino acid present at position 1589 and 1755. Thus, a mutation in S2^+ InsP3R-1 S1755E is designated, “S2+SE,” and in InsP3R-1 […] S1755A is designated “S2^−SA”. Similarly, an S2− InsP3R-1 with mutations in both S1589E and S1755E is designated “S2−EE”. The numbering of residues is based on the full-length rat InsP3R-1.
Dt-40 cells lacking all three InSP3 receptor subtypes were transfected by using electroporation at 350 V and 950 microfarads (4-mm gap cuvette). 2×10^7 cells were co-transfected with 25 μg of the InsP3R-1 cDNA, 25 μof the muscarinic type 3 (m3R) receptor DNA, and 4 μg of the red fluorescent protein plasmid pHcRed1-N1 (Clontech). Cells were incubated with DNA in 500 μl of Opti-MEM media (Invitrogen) on ice for 10 min. The cell/DNA mixture was electroporated, incubated on ice for 30 min, increased to 5 ml with Opti-MEM, and placed in a 5% CO2 incubator at 39° C. for 5 h. The cells were then centrifuged and resuspended in 12 ml of complete RPMI media (Invitrogen). Transfection efficiency was typically ˜20%. Experiments were performed within 32 h of transfection.
Transfected Dt-40 3ko cells were washed once in a HEPES-buffered physiological saline solution (HEPES-PSS) containing (in mM) 5.5 glucose, 137 NaCl, 0.56 MgCl2, 4.7 KCl, 1 Na2HPO4, 10 HEPES (pH 7.4), 1.2 CaCl2, and 1% w/v bovine serum albumin. Cells were then resuspended in bovine serum albumin HEPES-PSS with 1 μM Fura-2 (AM), placed on a 15-mm glass coverslip in a low volume perfusion chamber, and allowed to adhere for 30 min at room temperature. Cells were perfused continuously for 10 min with HEPES-PSS before experimentation to allow complete Fura-2 de-esterification. A field of cells for each experiment was chosen that contained a wide range of transfection efficiency based upon the intensity of red fluorescence emitted when excited at 560 nm. Individual cells that had emission gray levels between 1500 and 2500 were subsequently chosen to standardize expression levels. [Ca^2+]i imaging was performed essentially as described previously by using an inverted epifluorescence Nikon microscope with a 40× oil immersion objective lens (numerical aperture, 1.3) (100). Cells were excited alternately with light at 340 and 380±10 nm bandpass filters (Chroma, Rockingham, Vt.) using a monochrometer (TILL Photonics, Pleasanton, Calif.). Fluorescence images were captured and digitized with a digital camera driven by TILL Photonics software. Images were captured every 2 s with an exposure of 2 ms and 4 by 4 binning. 340/380 ratio images were calculated online and stored immediately to a hard disk. […]

Substance | Ca^2+ signal pattern [1] | latency before the increase in Ca^2+ versus S2−WT ([1]; 500 ng/ml α-IgM antibody) | magnitude of the initial transient versus WT ([1]; 500 ng/ml α-IgM antibody) | latency, frequency or initial peak magnitude versus S2−WT ([1]; 1 μg/ml α-IgM antibody) | maximum peak Δ response to CCh [2] [ratio units] | fold change from WT (CCh EC50) [2] [fold] | EC50 [2] [µM] | fold more sensitive than S2+WT (CCh-induced Ca^2+ release) [2] [fold] | fold more sensitive than nonphosphorylatable S2+SA [2] [fold] | sensitivity of CCh-induced Ca^2+ release relative to other constructs [2]
S2−EE: phosphomimetic S1589E/S1755E mutant of the short splice variant | repetitive Ca^2+ transients following a much shorter latency; also recorded: multiple Ca^2+ transients | significantly shorter | significantly larger | indistinguishable | – | – | – | – | – | –
S2−WT: wild-type rat type-1 InsP3 receptor, peripheral short S2− splice variant (SEQ ID NO: 17) | single small increase in [Ca^2+]i after a long latency; also recorded: single Ca^2+ transient after a long latency | – | – | – | – | – | – | – | – | –
S2+ES: S2+ InsP3R-1, long splice variant with S1589E | – | – | – | – | 0.59±0.2 | 1.3 | 0.0237 ± 0.0012 | – | – | –
S2+SE: phosphomimetic S2+ InsP3R-1, long splice variant of S1755E | – | – | – | – | 0.59±0.1 | 8.9 | 0.0036 ± 0.0002 | ~9 | ~32 | increased sensitivity
